From ChEMBL document CHEMBL1201862, “PubChem BioAssay data set” (2004)
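Method: 48-hour compound exposure of cells in 96-well plates, five concentrations, linear interpolation of endpoints. GI50: concentration for 50% inhibition of growth.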 The source made the active and inactive calls. Rule as the data show it: active = GI50 up to about 1.1 µM and inactive = higher.

How the values were obtained:
Test in all cases: NCI-60 cell line screen, 48 h
A498 = system: A498
A549 = system: A549
ACHN = system: ACHN
CAKI-1 = system: CAKI-1
CCRF-CEM = system: CCRF-CEM
COLO 205 = system: COLO 205
DU-145 = system: DU-145
HCC 2998 = system: HCC 2998
HCT-116 = system: HCT-116
HCT-15 = system: HCT-15
HL-60 = system: HL-60
HOP-62 = system: HOP-62
HOP-92 = system: HOP-92
HT-29 = system: HT-29
Hs-578T = system: Hs-578T
IGROV-1 = system: IGROV-1
K562 = system: K562
LOX IMVI = system: LOX IMVI
M14 = system: M14
MCF7 = system: MCF7
MDA-MB-231 = system: MDA-MB-231
MDA-MB-435 = system: MDA-MB-435
MDA-N = system: MDA-N
MOLT-4 = system: MOLT-4
NCI-H226 = system: NCI-H226
NCI-H23 = system: NCI-H23
NCI-H460 = system: NCI-H460
NCI-H522 = system: NCI-H522
NCI/ADR-RES = system: NCI/ADR-RES
OVCAR-3 = system: OVCAR-3
OVCAR-4 = system: OVCAR-4
OVCAR-5 = system: OVCAR-5
OVCAR-8 = system: OVCAR-8
PC-3 = system: PC-3
RPMI-8226 = system: RPMI-8226
SF-295 = system: SF-295
SK-MEL-28 = system: SK-MEL-28
SK-MEL-2 = system: SK-MEL-2
SK-MEL-5 = system: SK-MEL-5
SK-OV-3 = system: SK-OV-3
SN12C = system: SN12C
SNB-19 = system: SNB-19
SNB-75 = system: SNB-75
SR = system: SR
SW-620 = system: SW-620
T47D = system: T47D
TK-10 = system: TK-10
U-251 = system: U-251
UACC-257 = system: UACC-257
UO-31 = system: UO-31
786-0 = system: 786-0
EKVX = system: EKVX
KM12 = system: KM12
Malme-3M = system: Malme-3M
RXF 393 = system: RXF 393
SF-268 = system: SF-268
SF-539 = system: SF-539
UACC-62 = system: UACC-62

CCOP(=O)(CN=C(c1ccccc1)c1ccccc1)OCC
GI50 (A498): 73.8 µM (inactive)
GI50 (A549): > 100 µM (inactive)
GI50 (ACHN): > 100 µM (inactive)
GI50 (CAKI-1): > 100 µM (inactive)
GI50 (CCRF-CEM): > 100 µM (inactive)
GI50 (COLO 205): > 100 µM (inactive)
GI50 (DU-145): > 100 µM (inactive)
GI50 (HCC 2998): > 100 µM (inactive)
GI50 (HCT-116): > 100 µM (inactive)
GI50 (HCT-15): > 100 µM
GI50 (HL-60): 87.1 µM (inactive)
GI50 (HOP-62): > 100 µM (inactive)
GI50 (HOP-92): > 100 µM (inactive)
GI50 (HT-29): > 100 µM (inactive)
GI50 (Hs-578T): > 100 µM (inactive)
GI50 (IGROV-1): > 100 µM (inactive)
GI50 (K562): > 100 µM (inactive)
GI50 (LOX IMVI): > 100 µM (inactive)
GI50 (M14): > 100 µM (inactive)
GI50 (MCF7): > 100 µM (inactive)
GI50 (MDA-MB-231): > 100 µM (inactive)
GI50 (MDA-MB-435): > 100 µM (inactive)
GI50 (MDA-N): > 100 µM (inactive)
GI50 (MOLT-4): > 100 µM (inactive)
GI50 (NCI-H226): > 100 µM (inactive)
GI50 (NCI-H23): > 100 µM (inactive)
GI50 (NCI-H460): > 100 µM (inactive)
GI50 (NCI-H522): > 100 µM (inactive)
GI50 (NCI/ADR-RES): > 100 µM (inactive)
GI50 (OVCAR-3): 63.2 µM (inactive)
GI50 (OVCAR-4): > 100 µM (inactive)
GI50 (OVCAR-5): > 100 µM (inactive)
GI50 (OVCAR-8): > 100 µM (inactive)
GI50 (PC-3): > 100 µM (inactive)
GI50 (RPMI-8226): > 100 µM (inactive)
GI50 (SF-295): > 100 µM (inactive)
GI50 (SK-MEL-28): > 100 µM (inactive)
GI50 (SK-MEL-2): > 100 µM (inactive)
GI50 (SK-MEL-5): > 100 µM (inactive)
GI50 (SK-OV-3): > 100 µM (inactive)
GI50 (SN12C): > 100 µM (inactive)
GI50 (SNB-19): > 100 µM (inactive)
GI50 (SNB-75): > 100 µM (inactive)
GI50 (SR): > 100 µM (inactive)
GI50 (SW-620): > 100 µM (inactive)
GI50 (T47D): 86.7 µM (inactive)
GI50 (TK-10): > 100 µM (inactive)
GI50 (U-251): > 100 µM (inactive)
GI50 (UACC-257): > 100 µM (inactive)
GI50 (UO-31): > 100 µM (inactive)

O/N=C1\CSc2ccccc2C1
GI50 (786-0): > 100 µM (inactive)
GI50 (A498): 51.6 µM (inactive)
GI50 (A549): > 100 µM (inactive)
GI50 (ACHN): > 100 µM (inactive)
GI50 (CAKI-1): 90.2 µM (inactive)
GI50 (CCRF-CEM): > 100 µM (inactive)
GI50 (COLO 205): > 100 µM (inactive)
GI50 (DU-145): > 100 µM (inactive)
GI50 (EKVX): 30.6 µM (inactive)
GI50 (HCC 2998): > 100 µM (inactive)
GI50 (HCT-116): > 100 µM (inactive)
GI50 (HCT-15): > 100 µM
GI50 (HL-60): 5.33 µM (inactive)
GI50 (HOP-62): > 100 µM (inactive)
GI50 (HOP-92): 59.4 µM (inactive)
GI50 (HT-29): > 100 µM (inactive)
GI50 (Hs-578T): 41.8 µM (inactive)
GI50 (IGROV-1): > 100 µM (inactive)
GI50 (K562): > 100 µM (inactive)
GI50 (KM12): > 100 µM (inactive)
GI50 (LOX IMVI): > 100 µM (inactive)
GI50 (M14): > 100 µM (inactive)
GI50 (MCF7): > 100 µM (inactive)
GI50 (MDA-MB-231): > 100 µM (inactive)
GI50 (MDA-MB-435): > 100 µM (inactive)
GI50 (MDA-N): > 100 µM (inactive)
GI50 (MOLT-4): > 100 µM (inactive)
GI50 (Malme-3M): > 100 µM (inactive)
GI50 (NCI-H226): > 100 µM (inactive)
GI50 (NCI-H23): > 100 µM (inactive)
GI50 (NCI-H460): > 100 µM (inactive)
GI50 (NCI-H522): > 100 µM (inactive)
GI50 (NCI/ADR-RES): > 100 µM (inactive)
GI50 (OVCAR-3): > 100 µM (inactive)
GI50 (OVCAR-4): > 100 µM (inactive)
GI50 (OVCAR-5): > 100 µM (inactive)
GI50 (OVCAR-8): > 100 µM (inactive)
GI50 (PC-3): > 100 µM (inactive)
GI50 (RPMI-8226): > 100 µM (inactive)
GI50 (RXF 393): 72.3 µM (inactive)
GI50 (SF-268): > 100 µM (inactive)
GI50 (SF-295): > 100 µM (inactive)
GI50 (SF-539): > 100 µM (inactive)
GI50 (SK-MEL-28): > 100 µM (inactive)
GI50 (SK-MEL-2): > 100 µM (inactive)
GI50 (SK-MEL-5): > 100 µM (inactive)
GI50 (SK-OV-3): > 100 µM (inactive)
GI50 (SN12C): > 100 µM (inactive)
GI50 (SNB-19): > 100 µM (inactive)
GI50 (SR): 94.4 µM (inactive)
GI50 (SW-620): > 100 µM (inactive)
GI50 (T47D): > 100 µM (inactive)
GI50 (TK-10): > 100 µM (inactive)
GI50 (U-251): > 100 µM (inactive)
GI50 (UACC-257): > 100 µM (inactive)
GI50 (UACC-62): > 100 µM (inactive)
GI50 (UO-31): > 100 µM (inactive)

CSCCC(NC(=O)OCc1ccccc1)P(=O)(O)c1ccccc1 (stereo unspecified)
GI50 (A549): > 100 µM (inactive)
GI50 (ACHN): > 100 µM (inactive)
GI50 (CAKI-1): > 100 µM (inactive)
GI50 (CCRF-CEM): > 100 µM (inactive)
GI50 (COLO 205): > 100 µM (inactive)
GI50 (DU-145): > 100 µM (inactive)
GI50 (HCC 2998): > 100 µM (inactive)
GI50 (HCT-116): > 100 µM (inactive)
GI50 (HCT-15): > 100 µM
GI50 (HL-60): > 100 µM (inactive)
GI50 (HOP-62): > 100 µM (inactive)
GI50 (HOP-92): > 100 µM (inactive)
GI50 (HT-29): > 100 µM (inactive)
GI50 (Hs-578T): > 100 µM (inactive)
GI50 (IGROV-1): > 100 µM (inactive)
GI50 (K562): > 100 µM (inactive)
GI50 (LOX IMVI): > 100 µM (inactive)
GI50 (M14): > 100 µM (inactive)
GI50 (MCF7): > 100 µM (inactive)
GI50 (MDA-MB-231): > 100 µM (inactive)
GI50 (MDA-MB-435): > 100 µM (inactive)
GI50 (MDA-N): > 100 µM (inactive)
GI50 (MOLT-4): > 100 µM (inactive)
GI50 (NCI-H226): > 100 µM (inactive)
GI50 (NCI-H23): > 100 µM (inactive)
GI50 (NCI-H460): > 100 µM (inactive)
GI50 (NCI-H522): > 100 µM (inactive)
GI50 (NCI/ADR-RES): > 100 µM (inactive)
GI50 (OVCAR-3): > 100 µM (inactive)
GI50 (OVCAR-4): > 100 µM (inactive)
GI50 (OVCAR-5): > 100 µM (inactive)
GI50 (OVCAR-8): > 100 µM (inactive)
GI50 (PC-3): > 100 µM (inactive)
GI50 (RPMI-8226): > 100 µM (inactive)
GI50 (SF-295): > 100 µM (inactive)
GI50 (SK-MEL-28): > 100 µM (inactive)
GI50 (SK-MEL-2): > 100 µM (inactive)
GI50 (SK-MEL-5): > 100 µM (inactive)
GI50 (SK-OV-3): > 100 µM (inactive)
GI50 (SN12C): > 100 µM (inactive)
GI50 (SNB-19): > 100 µM (inactive)
GI50 (SNB-75): > 100 µM (inactive)
GI50 (SR): > 100 µM (inactive)
GI50 (SW-620): > 100 µM (inactive)
GI50 (T47D): > 100 µM (inactive)
GI50 (TK-10): > 100 µM (inactive)
GI50 (U-251): > 100 µM (inactive)
GI50 (UACC-257): > 100 µM (inactive)
GI50 (UO-31): > 100 µM (inactive)
